The values that follow come from US12331022B2, “Spiropiperidine allosteric modulators of nicotinic acetylcholine receptors” (Merck Sharp & Dohme LLC, priority 2019, dated 2025).

The assay addresses T1, human α7 nAChR (Homo sapiens, UniProt P36544).
T1 construct: host or cells: HEK
Put plainly: Automated patch-clamp electrophysiology functional assay (Assay A). Type of assay: cell-based. The following applies: HEK cell line stably expressing human RIC-3 and human α7, IonFlux HT whole-cell population patch, with or without 40 μM acetylcholine. In outline:
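Whole-cell population patch clamp at −60 mV, room temperature, on HEK cells stably co-expressing human α7 and RIC-3; compounds tested at three ascending concentrations per recording, alone (agonism) or with 40 μM acetylcholine (potentiation). Currents normalised to an initial 1 s 40 μM acetylcholine response; EC50 from concentration series.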
A general note: The patch-clamp technique gives a direct electrical read-out from membranes.

Where two headings read alike, the source gives them in different places. Some results are limits rather than exact numbers.

T1 sequence (P36544 23-502): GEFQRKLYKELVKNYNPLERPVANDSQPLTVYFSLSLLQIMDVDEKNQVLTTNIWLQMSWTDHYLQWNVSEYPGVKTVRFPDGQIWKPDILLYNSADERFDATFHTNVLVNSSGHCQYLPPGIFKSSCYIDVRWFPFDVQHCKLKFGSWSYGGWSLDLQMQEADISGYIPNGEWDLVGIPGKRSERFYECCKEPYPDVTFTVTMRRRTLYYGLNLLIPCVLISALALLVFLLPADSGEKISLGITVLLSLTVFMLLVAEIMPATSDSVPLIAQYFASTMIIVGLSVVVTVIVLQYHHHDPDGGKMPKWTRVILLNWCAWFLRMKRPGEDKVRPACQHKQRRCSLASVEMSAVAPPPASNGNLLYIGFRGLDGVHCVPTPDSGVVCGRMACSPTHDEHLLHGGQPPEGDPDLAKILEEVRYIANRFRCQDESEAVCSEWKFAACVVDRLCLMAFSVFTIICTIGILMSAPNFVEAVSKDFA

Regarding `NS(=O)(=O)N1CCC2(CC2COc2cccc(OCC(F)(F)F)n2)C(F)(F)C1` (racemic) [Example A39, 4,4-difluoro-1-({[6-(2,2,2-trifluoroethoxy)pyridin-2-yl]oxy}methyl)-6-azaspiro[2.5]octane-6-sulfonamide], the EC50 by setting is: (read-out: α7 nAChR EC50) 310 nM; (read-out: α7 nAChR Potency) 100 to 500 nM.

As for `NS(=O)(=O)N1CCC2(CC1)C[C@@H]2COc1cccc(OCC(F)(F)F)n1` [Example A38, (1S)-1-({[6-(2,2,2-trifluoroethoxy)pyridin-2-yl]oxy}methyl)-6-azaspiro[2.5]octane-6-sulfonamide], the EC50 is 720 nM (read-out: α7 nAChR EC50) and 500 to 5000 nM (read-out: α7 nAChR Potency).

On to `CC(C)c1cccc(OC[C@@H]2CC23CCN(S(N)(=O)=O)CC3)n1` [Example A53, (1R)-1-({[6-(propan-2-yl)pyridin-2-yl]oxy}methyl)-6-azaspiro[2.5]octane-6-sulfonamide], for which the EC50 runs as follows: (read-out: α7 nAChR EC50) 640 nM; (read-out: α7 nAChR Potency) 500 to 5000 nM.

As to `Cn1nc(C(F)(F)F)cc1OCC1C(F)(F)C12CCN(S(N)(=O)=O)CC2` (single isomer, unassigned) [Example A11, 1,1-difluoro-2-({[1-methyl-3-(trifluoromethyl)-1H-pyrazol-5-yl]oxy}methyl)-6-azaspiro[2.5]octane-6-sulfonamide], the EC50 is 90 nM (read-out: α7 nAChR EC50) and no more than 100 nM (read-out: α7 nAChR Potency).

Consider `NS(=O)(=O)N1CCC2(CC1)CC2COc1cccc(OCC(F)(F)F)c1` (centres unmarked) [Example 7, 1-{[3-(2,2,2-Trifuoroethoxy)phenoxy]methyl}-6-azaspiro[2.5]octane-6-sulfonamide], for which the EC50 was 330 nM (read-out: α7 nAChR EC50) and 100 to 500 nM (read-out: α7 nAChR Potency).

On to `NS(=O)(=O)N1CCC2(CC1)C(COc1cccc(OC(F)F)c1)C2(F)F` (single isomer, unassigned) [Example A29, 2-{[3-(difluoromethoxy)phenoxy]methyl}-1,1-difluoro-6-azaspiro[2.5]octane-6-sulfonamide], for which the EC50 (read-out: α7 nAChR EC50) was found to be 310 nM and the EC50 (read-out: α7 nAChR Potency) was in the range of 100 to 500 nM.

`CN1CCN(c2cccc(OC[C@@H]3CC34CCN(S(N)(=O)=O)CC4)n2)CC1` [Example A46, (1R)-1-({[6-(4-methylpiperazin-1-yl)pyridin-2-yl]oxy}methyl)-6-azaspiro[2.5]octane-6-sulfonamide]: under “read-out: α7 nAChR Potency”, the EC50 lay in the range of 500 to 5000 nM.

For `NS(=O)(=O)N1CCC2(CC1)C[C@H]2C(=O)Nc1cccc(Cl)c1` [Example B2, (1R)—N-(3-chlorophenyl)-6-sulfamoyl-6-azaspiro[2.5]octane-1-carboxamide], the EC50 (read-out: α7 nAChR Potency) was in the range of 500 to 5000 nM.

Consider `NS(=O)(=O)N1CCC2(CC1)C(COc1noc(-c3ccccc3)n1)C2(F)F` (single isomer, unassigned) [Example 6, 1,1-Difluoro-2-{[(5-phenyl-1,2,4-oxadiazol-3-yl)oxy]methyl}-6-azaspiro[2.5]octane-6-sulfonamide], for which the EC50 (read-out: α7 nAChR EC50) worked out at 49 nM and the EC50 (read-out: α7 nAChR Potency) was no more than 100 nM.

As for `NS(=O)(=O)N1CCC2(CC1)C(COc1ccnc(OC(F)F)c1)C2(F)F` (single isomer, unassigned) [Example 2, 2-({[2-(Difluoromethoxy)pyridin-4-yl]oxy}methyl)-1,1-difluoro-6-azaspiro[2.5]octane-6-sulfonamide], the EC50 is, setting by setting: (read-out: α7 nAChR EC50) 71 nM; (read-out: α7 nAChR Potency) no more than 100 nM.

Take `NS(=O)(=O)N1CCC2(CC1)C(CSc1nnnn1-c1ccccc1)C2(F)F` (single isomer, unassigned) [Example A62, 1,1-difluoro-2-{[(1-phenyl-1H-tetrazol-5-yl)sulfanyl]methyl}-6-azaspiro[2.5]octane-6-sulfonamide]: the EC50 by setting is: (read-out: α7 nAChR EC50) 2000 nM; (read-out: α7 nAChR Potency) 500 to 5000 nM.

In the case of `NS(=O)(=O)N1CCC2(CC1)C(COc1cccc(OC(F)F)c1)C2(F)F` (single isomer, unassigned) [Example A28, 2-{[3-(difluoromethoxy)phenoxy]methyl}-1,1-difluoro-6-azaspiro[2.5]octane-6-sulfonamide], the EC50 was 37 nM (read-out: α7 nAChR EC50) and no more than 100 nM (read-out: α7 nAChR Potency).

For `NS(=O)(=O)N1CCC2(CC1)CC2COc1cccc(OC(F)F)c1` (racemic) [Example A23, 1-{[3-(difluoromethoxy)phenoxy]methyl}-6-azaspiro[2.5]octane-6-sulfonamide], the EC50 is 150 nM (read-out: α7 nAChR EC50) and 100 to 500 nM (read-out: α7 nAChR Potency).

As for `NS(=O)(=O)N1CCC2(CC1)C(COc1cccc(OCC(F)(F)F)n1)C2(F)F` (single isomer, unassigned) [Example A40, 1,1-difluoro-2-({[6-(2,2,2-trifluoroethoxy)pyridin-2-yl]oxy}methyl)-6-azaspiro[2.5]octane-6-sulfonamide], the EC50 (read-out: α7 nAChR EC50) was 19 nM and the EC50 (read-out: α7 nAChR Potency) was no more than 100 nM.
